Like-named read-outs stand apart in the source and are kept apart here.
Columns and labels:
[1] = molecular target: T1, capsaicin receptor (rat DRG membranes) (Rattus norvegicus, UniProt O35433); assay: biochemical; assay type: binding
T1 construct: membrane preparations from dorsal root ganglia (DRG) of female Sprague-Dawley rats; from tissue; host or cells: dorsal root ganglia of female Sprague-Dawley rats
Procedure: (§1) Membrane preparations are obtained from the DRG and Gasser ganglia of female Sprague-Dawley rats (250-300 g); animals are sacrificed by decapitation under ether anesthesia, the ganglia removed and collected into ice-cold disrupting buffer (5 mM KCl, 5.8 mM NaCl, 2 mM MgCl2, 12 mM glucose, 137 mM sucrose, 10 mM HEPES, 5 mM DTT, 2 mM EGTA, pH 7.4). After homogenization with the aid of a Polytron tissue homogenizer, samples are filtered over surgical gauze and then washed twice with the same buffer and stored at -70° C. Particulate fractions are obtained from other rat neural tissues (cerebellum, spinal cord, preoptic region, striatum, substantia nigra) and from DRG of pigs (Mt. Airy Locker Co., Mt. Airy, MD), sheep, cows (kindly provided by Dr. Solomon, USDA, Beltsville, MD), and chickens (Truslow Farms, Chesterton, MD) by a similar procedure.
(§2) The binding assays are carried out in a volume of 250 ul, containing assay buffer (same as the disrupting buffer but omitting DTT and EGTA and including 0.75 mM CaCl2), 26-30 ug of membrane protein and 0.25 mg/ml bovine serum albumin. […] Tubes are kept on ice while the additions are made. The assay mixture is incubated for 10 min at 37° C.; it is then cooled on ice. 150 ul of the mixture is pipetted onto Whatman GF/C or GF/F glass fiber filters presoaked with 10 mg/ml bovine serum albumin in 20 mM Tris-Cl (pH 7.4) and filtered immediately. An aliquot of 50 ul of the mixture is removed to determine total radioactivity. The filters are washed with 100 ml of ice-cold 20 mM Tris-Cl, pH 7 4, containing 0.1 mg/ml bovine serum albumin, and the bound radioactivity is determined by scintillation counting. Non-specific binding is determined in the presence of 100-1000 nM non-radioactive RTX.
(§3) Binding data from saturation experiments using increasing concentrations of hot ligand are analyzed using the collection of computer programs described by McPherson (McPherson, G.A., Analysis of radioligand binding experiments: a collection of computer programs for the IBM PC, J.Pharmacol.Methods, 14 (1985) 213-228).
(§4) Scatchard and Hill transformations are performed by the Equilibrium Binding Data Analysis program referred to as EBDA. Data are further analyzed by the curvilinear regression program LIGAND (Munson, R.J. and Rodbard, D., LIGAND: a versatile computerized approach for characterization of ligand-binding systems, Anal.Biochem, 107 (1980) 220-239).
RTX binding is also analyzed in the presence of a fixed, low (60 pM or 300 pM) concentration of [^3 H]RTX and increasing concentrations of non-radioactive RTX or other ligand. […] The Ki value for RTX is calculated from the relationship Ki =ID50 -L; the Ki values for other ligands are calculated from the general form of the equation (Cheng, Y.C. and Prusoff, W.H., Relation between the inhibition constant (Ki) and the concentration of inhibitor which causes 50 per cent inhibition (I50) of an enzymatic reaction, Biochem. Pharmacol., 22 (1973) 3099-3108) Ki =IC50 /(1+L/Kd) where L=concentration of labelled ligand and Kd =dissociation constant of radioactive ligand as determined in the saturation experiments using variable concentrations of hot ligand. Comparison of the quality of fit using single and multiple site competition models is performed by the LIGAND program.
[^3 H]RTX binding is examined using membrane preparations from dorsal root ganglia (DRG) of female Sprague-Dawley rats.

[2] = molecular target: T2, capsaicin receptor (pig DRG membranes) (Sus scrofa, UniProt F1RLJ0); assay: biochemical; assay type: binding
T2 construct: tissue Mt; Airy Locker Co., Mt; Airy, MD; host or cells: pig dorsal root ganglia
Procedure: as §1
Subcellular fractions are prepared by a modification of the method of Bastiaensen et al. (Bastiaensen, E., Miserez, B. and De Potter, W., Subcellular fractionation of bovine ganglion stellatum: co-storage of noradrenaline, Met-enkephalin and neuropeptide Y in large `dense-cored` vesicles, Brain Res., 442 (1988) 124-130. ) Briefly: DRG are dissected free from capsule, cut into small pieces with scissors, and then homogenized with a teflon pestle (20 strokes) in ice-cold 0.25 M sucrose/ 20 mM Tris-Cl (pH 7.4) buffer. The homogenate is filtered over surgical gauze; it is then centrifuged for 10 min at 2000 gmax, giving a pellet P1, and again at 10 000 gmax for 15 min giving a pellet P2. The P1 and P2 pellets are saved as nuclear and mitochondrial fractions for binding studies. The resulting supernatant is further centrifuged at 50 000 gmax for 60 min, and then the pellet is harvested as the plasma-membrane enriched microsomal fraction.
as §2, §3, §4
RTX binding is also analyzed in the presence of a fixed, low (60 pM or 300 pM) concentration of [^3 H]RTX and increasing concentrations of non-radioactive RTX or other ligand.

T1 sequence (O35433 whole entry): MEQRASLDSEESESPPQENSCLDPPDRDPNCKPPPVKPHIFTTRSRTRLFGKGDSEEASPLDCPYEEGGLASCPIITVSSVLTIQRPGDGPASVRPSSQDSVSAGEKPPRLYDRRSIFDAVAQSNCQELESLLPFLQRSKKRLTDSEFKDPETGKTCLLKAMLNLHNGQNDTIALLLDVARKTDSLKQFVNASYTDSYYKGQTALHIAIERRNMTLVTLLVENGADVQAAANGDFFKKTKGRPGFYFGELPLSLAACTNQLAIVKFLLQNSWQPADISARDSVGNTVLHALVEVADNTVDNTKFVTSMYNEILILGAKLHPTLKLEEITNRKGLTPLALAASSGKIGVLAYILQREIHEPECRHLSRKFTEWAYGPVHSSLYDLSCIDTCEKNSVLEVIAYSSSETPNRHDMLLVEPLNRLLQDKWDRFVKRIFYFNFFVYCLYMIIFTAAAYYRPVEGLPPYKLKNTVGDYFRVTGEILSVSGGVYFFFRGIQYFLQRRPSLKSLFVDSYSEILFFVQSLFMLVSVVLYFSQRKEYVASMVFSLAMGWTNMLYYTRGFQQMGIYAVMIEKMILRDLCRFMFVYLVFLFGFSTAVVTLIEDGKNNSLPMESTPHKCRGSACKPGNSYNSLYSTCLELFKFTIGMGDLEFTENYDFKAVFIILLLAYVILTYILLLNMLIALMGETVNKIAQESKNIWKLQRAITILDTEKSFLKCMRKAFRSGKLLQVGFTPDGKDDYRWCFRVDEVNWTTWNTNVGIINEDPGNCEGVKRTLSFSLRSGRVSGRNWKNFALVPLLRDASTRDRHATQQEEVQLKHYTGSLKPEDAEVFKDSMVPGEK
T2 sequence (F1RLJ0 1-841): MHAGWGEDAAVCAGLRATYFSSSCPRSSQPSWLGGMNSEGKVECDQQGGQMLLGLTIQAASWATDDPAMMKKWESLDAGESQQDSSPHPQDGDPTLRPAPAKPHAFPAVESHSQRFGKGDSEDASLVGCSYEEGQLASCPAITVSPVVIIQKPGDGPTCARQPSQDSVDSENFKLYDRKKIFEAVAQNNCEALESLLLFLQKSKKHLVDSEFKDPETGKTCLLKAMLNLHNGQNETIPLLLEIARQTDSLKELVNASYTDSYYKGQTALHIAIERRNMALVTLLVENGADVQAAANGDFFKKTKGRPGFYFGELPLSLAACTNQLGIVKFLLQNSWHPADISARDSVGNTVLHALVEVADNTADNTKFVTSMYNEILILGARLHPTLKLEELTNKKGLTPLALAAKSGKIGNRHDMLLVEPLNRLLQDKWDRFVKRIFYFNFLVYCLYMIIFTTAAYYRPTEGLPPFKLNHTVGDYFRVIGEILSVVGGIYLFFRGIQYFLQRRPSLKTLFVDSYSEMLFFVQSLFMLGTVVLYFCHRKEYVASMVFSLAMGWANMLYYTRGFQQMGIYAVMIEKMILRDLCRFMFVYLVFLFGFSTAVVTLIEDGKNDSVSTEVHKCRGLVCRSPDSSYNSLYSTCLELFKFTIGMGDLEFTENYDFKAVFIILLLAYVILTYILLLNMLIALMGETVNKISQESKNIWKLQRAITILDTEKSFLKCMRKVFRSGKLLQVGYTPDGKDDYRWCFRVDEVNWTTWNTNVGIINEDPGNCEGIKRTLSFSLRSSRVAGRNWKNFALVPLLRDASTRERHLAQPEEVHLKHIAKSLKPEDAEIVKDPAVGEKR

C=C(C)[C@]12C[C@@H](C)[C@@]34O[C@](Cc5ccccc5)(O[C@@H]1[C@@H]3C=C(COC(=O)Cc1ccc(O)c(OC)c1)C[C@]1(O)C(=O)C(C)=C[C@@H]41)O2 [[^3 H]RTX, [^3 H]resiniferatoxin]
Bmax (summary) ([1]; rat DRG): 160 fmol/mg
specific binding to the DRG membranes ([1]; rat DRG): specific, saturable binding
Hill coefficient ([1]; rat DRG membranes): 0.96
specific binding of the total at the Kd ([1]; rat DRG membranes, at the Kd): approximately 50%
Bmax (Scatchard analysis) ([1]; rat DRG membranes, 3 separate determinations): 150 fmol/mg protein
Kd ([1]; rat DRG membranes, data cumulated from 3 separate determinations, read-out: Kd (Scatchard analysis)): 0.3 nM
Bmax (curvilinear analysis, LIGAND) ([1]; rat DRG membranes, final parameter estimate): 160 fmol/mg protein
Kd ([1]; rat DRG membranes, one site model, final parameter estimate, read-out: Kd (curvilinear analysis, LIGAND)): 0.27 nM
Kd ([1]; rat DRG, read-out: Kd (summary)): 0.27 nM
specific binding ([2]; DRG from pigs): Specific binding is observed
Bmax (summary) ([2]; pig DRG): 730 fmol/mg
specific [^3H]RTX binding after heating of membranes ([2]; pig DRG membranes heated to 55° C. for 10-20 min, 2 experiments): completely inactivates
time at which specific binding is maximal ([2]; pig DRG membranes, 37° C.): 10 min
Hill coefficient ([2]; pig DRG, partially purified membrane preparations): 0.9
Bmax (Scatchard analysis) ([2]; pig DRG, partially purified membrane preparations, 2 separate determinations): 700 fmol/mg protein
Kd ([2]; pig DRG, partially purified membrane preparations, 2 separate determinations, LIGAND, read-out: Kd (Scatchard analysis)): 1.7 nM
Bmax (competition) ([2]; pig DRG, mean±SEM, 4 determinations): 730±80 fmol/ mg protein

Reference: patent publication US5232684A, “Labelled resiniferatoxin, compositions thereof, and methods for using the same” (priority 1990, dated 1993)
